Laboratory results from US20140107025A1, “OCULAR DRUG DELIVERY SYSTEM” (priority 2012, published 2014).

Experiments:
[1] = tested on: corneal epithelial defects in New Zealand white rabbits; test: Corneal epithelial impaired healing debridement model, rHGH in HYSTEM/GSSG gel (Example 3); assay type: in vivo; conditions: topical dexamethasone 0.1% 4x/day for 7 days; normal healing 4-5 days; some rabbits not completely closed at 7 days
Excerpt: A corneal epithelial impaired healing debridement model was developed by utilizing a validated epithelial debridement procedure and treating immediately postoperative with topical steroids (dexamethasone). The corneal epithelial defects were created surgically in a standardized and reproducible manner in both eyes. The normal healing for epithelial defects in normal healthy rabbits is 4-5 days. […] This model confirmed delayed epithelial wound healing in New Zealand white rabbits.
Rabbits were randomized post surgical intervention to maintain a masked study. The examiner was masked to the treatment arm.
Recombinant Human Growth Hormone (rHGH) was reconstituted and prepared as instructed, and was delivered topically to the eye via a crosslinked hyaluronic acid gel polymer HYSTEM (with glutathione GSSG) at a concentration of 4 ug/day in a 50 ul drop BID, for 7 days (see Example 2). The comparator arms are shown in Table 1: (1) the polymer HYSTEM with GSSG but without rHGH (group 1) and (2) dexamethasone alone (no polymer and no rHGH) (group 3). In vivo clinical exams were performed twice daily to determine percent corneal healing, corneal defect size, and percent of eyes (cornea) completely healed.

[2] = tested on: corneal epithelial defects in the eyes of New Zealand white rabbits; test: Rabbit corneal epithelial debridement model with healing impaired by topical dexamethasone (Example 1); assay type: in vivo; conditions: for eyes with epithelial defect completely closed/healed by day 5: topical QID OU, all eyes on dexamethasone 0.1% QID, rHGH 100 μg/mL, 50 μL drop
Excerpt: A rabbit debridement model was used to assess the effect of topically applied rHGH on corneal epithelial defect closure in a model where epithelial closure was impaired by concomitantly administered topical steroids (Dexamethasone 0.1% QID). Standard epithelial defects were created in the eyes of nine New Zealand white rabbits by standard methods. Rabbits received topical dexamethasone QID (4×/day) to all 18 eyes. Rabbits were randomized to one of three treatment arms post surgery: a control arm of dexamethasone only QID OU (both eyes), a vehicle group of BSS (balanced salt solution) QID OU, and test article of rHGH QID OU. One drop (50 μL) of rHGH (reconstituted in Ringers Lactate to achieve a final concentration of 100 μg/mL) (n=3) was applied topically four times to both eyes. All eyes were also treated with one drop of an antibiotic solution after the surgical defect creation. Photographic assessment (twice daily) and fluorescein assessment were used to determine the speed and quality of epithelial defect closure. The corneal defect size was estimated in the photographs by obtaining the pixel count of the defect and dividing by the pixel count of the cornea. The animals were sacrificed on day 5.
The solid black bars represent percent of eyes completely healed when treated with rHGH administered topically whereas the shaded bars represent percent of eyes completely healed when treated with BSS (balanced saline solution). Over the course of this study, no eyes were completely healed when treated with dexamethasone alone.

Compound	time of healing of epithelial defects [1] [days]	eyes with epithelial defect completely closed/healed by day 5 [2]	eyes starting to heal as quickly as Day 2 ([2]; Day 2, rHGH 100 μg/mL topical QID plus dexamethasone) [%]	speed of epithelial defect closure (photographic assessment) ([2]; comparison of treatment arms over 5 days)	tolerability of dosing ([2]; topical ocular dosing QID, 5 days)
C[C@@H]1C[C@H]2[C@@H]3CCC4=CC(=O)C=C[C@]4(C)[C@@]3(F)[C@@H](O)C[C@]2(C)[C@@]1(O)C(=O)CO [dexamethasone, reference compound]	7	0/9			
rHGH: Recombinant human growth hormone; hydrophilic 22 Kda protein of 191 amino acids; Genotropin used in Example 2		9/9	10	most rapid healing	tolerated the dosing well without clinical concerns
